# The source made the active and inactive calls.
# Experiments:
# [1] = target: T1, Short transient receptor potential channel 4 (Mus musculus, UniProt Q9QUQ5); test: mouse TRPC4 channel inhibitors, dose response, cell-based, HEK293 TRPC4/mu-opioid, Fluo-4 calcium (AID 434942); assay type: functional;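 also: potency of inhibitors blocking the TRPC4 calcium response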
# T1 sequence (Q9QUQ5 whole entry): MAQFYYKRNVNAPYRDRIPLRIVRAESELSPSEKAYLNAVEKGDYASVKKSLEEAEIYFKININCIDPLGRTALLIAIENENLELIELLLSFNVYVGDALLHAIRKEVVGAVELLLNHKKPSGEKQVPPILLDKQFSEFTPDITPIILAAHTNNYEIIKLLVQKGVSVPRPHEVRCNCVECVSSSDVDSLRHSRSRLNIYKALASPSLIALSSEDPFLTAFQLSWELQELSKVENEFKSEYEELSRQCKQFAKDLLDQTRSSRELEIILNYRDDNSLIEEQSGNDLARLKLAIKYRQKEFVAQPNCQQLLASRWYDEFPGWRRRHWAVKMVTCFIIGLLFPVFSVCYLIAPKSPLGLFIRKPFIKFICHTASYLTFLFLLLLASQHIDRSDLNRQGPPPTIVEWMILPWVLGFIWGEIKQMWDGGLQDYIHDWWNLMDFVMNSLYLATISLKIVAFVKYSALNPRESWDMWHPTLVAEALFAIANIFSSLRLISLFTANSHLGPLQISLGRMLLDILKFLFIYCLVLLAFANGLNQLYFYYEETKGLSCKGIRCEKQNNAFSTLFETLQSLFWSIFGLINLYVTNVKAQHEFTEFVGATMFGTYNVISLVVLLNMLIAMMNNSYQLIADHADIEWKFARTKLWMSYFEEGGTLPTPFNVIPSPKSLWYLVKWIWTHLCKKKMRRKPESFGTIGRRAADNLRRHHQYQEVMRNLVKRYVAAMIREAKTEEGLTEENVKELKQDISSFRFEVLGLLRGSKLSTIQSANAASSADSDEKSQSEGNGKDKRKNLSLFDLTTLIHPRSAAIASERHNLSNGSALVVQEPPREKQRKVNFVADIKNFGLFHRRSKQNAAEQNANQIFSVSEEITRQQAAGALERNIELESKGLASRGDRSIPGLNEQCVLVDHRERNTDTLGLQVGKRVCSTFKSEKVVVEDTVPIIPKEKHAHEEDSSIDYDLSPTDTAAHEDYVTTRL
# [2] = cytotoxicity in HEK-293T cells, dose response, cytotoxicity control for TCR NF-kB inhibitor project, luminescence, T-cell screen hits (AID 489026); assay type: functional, cell-based;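 also: cells exposed to compound about 14 hours before the viability readout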
# Protein RecA = target: T2, Protein RecA (Mycobacterium tuberculosis, UniProt P9WHJ3); test: Fluorescence Cell-Free Homogeneous Dose Retest to Identify Inhibitors of RecA-Intein Splicing Activity. [Related pubchem assays (depositor defined):AID2097, AID2223, AID489010, AID492950]; assay type: functional
# T2 sequence (P9WHJ3 whole entry): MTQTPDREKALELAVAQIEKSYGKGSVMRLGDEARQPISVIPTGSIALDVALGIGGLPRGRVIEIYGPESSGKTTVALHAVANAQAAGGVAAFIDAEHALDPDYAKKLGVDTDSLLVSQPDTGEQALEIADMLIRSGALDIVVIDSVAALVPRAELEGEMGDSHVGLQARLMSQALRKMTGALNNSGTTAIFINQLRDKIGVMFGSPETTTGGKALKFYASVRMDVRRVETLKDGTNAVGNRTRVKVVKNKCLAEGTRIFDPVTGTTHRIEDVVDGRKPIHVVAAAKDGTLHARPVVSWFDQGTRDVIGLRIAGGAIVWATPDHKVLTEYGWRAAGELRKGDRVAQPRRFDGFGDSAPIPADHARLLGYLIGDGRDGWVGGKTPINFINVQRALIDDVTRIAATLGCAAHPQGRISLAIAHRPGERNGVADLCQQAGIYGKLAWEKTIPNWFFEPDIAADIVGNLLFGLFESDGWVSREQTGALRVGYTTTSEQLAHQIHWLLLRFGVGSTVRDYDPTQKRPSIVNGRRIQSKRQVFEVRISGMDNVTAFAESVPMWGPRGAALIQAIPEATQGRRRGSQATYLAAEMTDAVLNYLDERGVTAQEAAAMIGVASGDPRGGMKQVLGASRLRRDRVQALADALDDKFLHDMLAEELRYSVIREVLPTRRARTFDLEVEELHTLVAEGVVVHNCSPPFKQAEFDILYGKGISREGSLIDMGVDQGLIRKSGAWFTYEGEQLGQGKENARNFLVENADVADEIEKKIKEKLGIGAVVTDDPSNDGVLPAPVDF
# [3] = target: T3, Replicative DNA helicase DnaB (Mycobacterium tuberculosis, UniProt P9WMR3); test: DnaB intein splicing inhibitors, dose response, biochemical, cell-free fluorescence (AID 449749); assay type: functional
# T3 sequence (P9WMR3 whole entry): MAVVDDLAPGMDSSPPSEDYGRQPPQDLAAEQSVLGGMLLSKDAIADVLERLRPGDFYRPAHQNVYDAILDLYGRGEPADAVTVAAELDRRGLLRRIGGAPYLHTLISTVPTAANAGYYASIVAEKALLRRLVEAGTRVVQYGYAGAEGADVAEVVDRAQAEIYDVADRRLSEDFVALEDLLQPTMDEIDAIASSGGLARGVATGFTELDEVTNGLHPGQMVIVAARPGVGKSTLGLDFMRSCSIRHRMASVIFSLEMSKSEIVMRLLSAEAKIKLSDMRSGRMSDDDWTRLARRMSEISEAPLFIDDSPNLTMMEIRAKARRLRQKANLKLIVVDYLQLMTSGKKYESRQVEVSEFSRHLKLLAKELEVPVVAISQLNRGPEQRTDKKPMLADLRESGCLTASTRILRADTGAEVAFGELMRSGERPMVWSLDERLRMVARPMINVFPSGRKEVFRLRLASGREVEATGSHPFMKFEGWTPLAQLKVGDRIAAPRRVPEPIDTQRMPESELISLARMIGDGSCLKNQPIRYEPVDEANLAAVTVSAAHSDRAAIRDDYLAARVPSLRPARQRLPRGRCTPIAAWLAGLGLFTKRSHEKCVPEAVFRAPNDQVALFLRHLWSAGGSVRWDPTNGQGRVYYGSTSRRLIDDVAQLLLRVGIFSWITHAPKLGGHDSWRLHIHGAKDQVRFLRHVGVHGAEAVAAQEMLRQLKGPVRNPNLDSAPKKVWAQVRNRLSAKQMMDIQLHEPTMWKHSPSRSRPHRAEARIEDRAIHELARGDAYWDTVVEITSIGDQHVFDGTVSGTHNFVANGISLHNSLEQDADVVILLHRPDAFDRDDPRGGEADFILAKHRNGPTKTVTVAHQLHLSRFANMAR
# [4] = Intein inhibitors as potential Tuberculosis drugs, a cytotoxicity screen. [Related pubchem assays (depositor defined):AID2221, AID2223, AID434968, AID435010, AID449749, AID449750, AID489010]; assay type: functional
# [5] = target: Voltage-dependent T-type calcium channel subunit alpha-1H (Homo sapiens, UniProt O95180); assay type: functional;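 also: channel activity triggered by adding a high calcium stimulation buffer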
# Sequence of Voltage-dependent T-type calcium channel subunit alpha-1H (O95180 whole entry): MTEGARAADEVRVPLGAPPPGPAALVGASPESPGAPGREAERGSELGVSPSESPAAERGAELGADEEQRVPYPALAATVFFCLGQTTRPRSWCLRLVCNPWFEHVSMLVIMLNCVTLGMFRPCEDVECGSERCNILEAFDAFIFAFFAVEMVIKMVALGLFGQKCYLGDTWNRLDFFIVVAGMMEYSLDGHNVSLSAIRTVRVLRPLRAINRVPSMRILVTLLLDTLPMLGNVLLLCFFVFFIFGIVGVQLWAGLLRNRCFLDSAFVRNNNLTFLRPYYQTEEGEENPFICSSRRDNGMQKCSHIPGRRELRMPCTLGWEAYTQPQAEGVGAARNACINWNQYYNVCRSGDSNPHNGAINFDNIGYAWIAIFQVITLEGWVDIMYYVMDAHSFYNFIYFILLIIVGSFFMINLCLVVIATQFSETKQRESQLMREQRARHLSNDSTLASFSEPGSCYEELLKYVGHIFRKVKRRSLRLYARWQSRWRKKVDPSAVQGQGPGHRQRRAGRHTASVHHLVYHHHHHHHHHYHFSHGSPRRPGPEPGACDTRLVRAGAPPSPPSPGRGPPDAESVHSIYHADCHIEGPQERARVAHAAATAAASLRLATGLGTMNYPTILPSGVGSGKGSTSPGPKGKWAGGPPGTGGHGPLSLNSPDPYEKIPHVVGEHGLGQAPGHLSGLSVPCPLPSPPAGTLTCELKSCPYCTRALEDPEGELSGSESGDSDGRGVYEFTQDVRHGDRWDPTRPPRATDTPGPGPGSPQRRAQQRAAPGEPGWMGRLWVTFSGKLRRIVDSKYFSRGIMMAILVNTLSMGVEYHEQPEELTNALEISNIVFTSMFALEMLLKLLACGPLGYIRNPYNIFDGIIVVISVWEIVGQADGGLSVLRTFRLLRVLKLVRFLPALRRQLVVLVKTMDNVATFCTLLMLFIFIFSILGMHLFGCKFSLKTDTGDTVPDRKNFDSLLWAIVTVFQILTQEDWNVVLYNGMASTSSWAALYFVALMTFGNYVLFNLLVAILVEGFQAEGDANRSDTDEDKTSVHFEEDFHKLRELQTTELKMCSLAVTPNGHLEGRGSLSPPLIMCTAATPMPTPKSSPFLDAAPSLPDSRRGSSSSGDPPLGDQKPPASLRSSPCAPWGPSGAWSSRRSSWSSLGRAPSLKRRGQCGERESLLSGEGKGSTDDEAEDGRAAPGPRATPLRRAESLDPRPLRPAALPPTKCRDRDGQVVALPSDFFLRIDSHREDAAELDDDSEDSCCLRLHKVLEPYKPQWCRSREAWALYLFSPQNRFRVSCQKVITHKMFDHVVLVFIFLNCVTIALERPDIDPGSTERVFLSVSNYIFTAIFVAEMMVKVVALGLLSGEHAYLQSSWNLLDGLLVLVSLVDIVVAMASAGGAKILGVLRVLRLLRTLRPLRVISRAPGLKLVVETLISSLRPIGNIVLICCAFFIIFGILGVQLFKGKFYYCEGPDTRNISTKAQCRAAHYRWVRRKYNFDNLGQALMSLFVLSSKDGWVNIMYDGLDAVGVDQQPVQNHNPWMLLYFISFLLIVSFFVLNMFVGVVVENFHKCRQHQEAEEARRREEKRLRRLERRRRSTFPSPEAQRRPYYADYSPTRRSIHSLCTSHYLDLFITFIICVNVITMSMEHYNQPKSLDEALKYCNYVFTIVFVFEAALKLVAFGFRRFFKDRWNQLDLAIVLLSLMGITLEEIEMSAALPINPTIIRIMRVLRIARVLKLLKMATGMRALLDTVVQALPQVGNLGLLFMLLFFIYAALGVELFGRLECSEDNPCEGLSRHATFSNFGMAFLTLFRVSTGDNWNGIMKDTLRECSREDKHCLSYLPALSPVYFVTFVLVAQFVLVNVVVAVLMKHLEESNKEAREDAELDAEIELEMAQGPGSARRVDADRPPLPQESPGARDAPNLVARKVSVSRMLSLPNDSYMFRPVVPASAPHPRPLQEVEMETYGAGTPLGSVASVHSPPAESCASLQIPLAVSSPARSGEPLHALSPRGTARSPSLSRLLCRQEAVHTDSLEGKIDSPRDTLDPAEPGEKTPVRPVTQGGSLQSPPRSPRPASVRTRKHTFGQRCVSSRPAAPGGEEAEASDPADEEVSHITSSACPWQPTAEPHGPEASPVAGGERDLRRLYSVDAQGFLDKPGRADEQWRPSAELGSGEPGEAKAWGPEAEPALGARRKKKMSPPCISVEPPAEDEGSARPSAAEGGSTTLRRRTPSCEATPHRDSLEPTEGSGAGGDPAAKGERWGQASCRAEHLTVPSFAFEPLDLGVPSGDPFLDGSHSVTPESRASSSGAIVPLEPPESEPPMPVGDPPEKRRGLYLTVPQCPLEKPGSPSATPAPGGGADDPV
# SUMO-activating enzyme = SUMO-activating enzyme (Homo sapiens, UniProt Q9UBT2); test: SUMOylation inhibitor hit validation, confirmation, SUMOylation inhibitor project, biochemical, AlphaScreen (AID 2018); assay type: functional
# X-box-binding protein 1 = target: T4, X-box-binding protein 1 (Homo sapiens, UniProt P17861); assay type: functional, Cricetulus griseus;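 also: confirmatory dose-response counter-screen serving a CHOP assay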
# T4 sequence (P17861 whole entry): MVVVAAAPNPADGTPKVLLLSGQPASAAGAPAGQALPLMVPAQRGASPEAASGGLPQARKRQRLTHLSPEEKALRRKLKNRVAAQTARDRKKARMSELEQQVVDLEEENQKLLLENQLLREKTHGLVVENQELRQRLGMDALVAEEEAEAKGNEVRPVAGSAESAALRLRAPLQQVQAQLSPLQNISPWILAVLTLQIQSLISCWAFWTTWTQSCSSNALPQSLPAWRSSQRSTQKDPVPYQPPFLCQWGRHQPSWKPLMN
# [6] = target: T5, E3 ubiquitin-protein ligase XIAP (Homo sapiens, UniProt P98170); test: XIAP antagonists, biochemical, IAP family, fluorescence polarization (AID 1018); assay type: functional
# T5 sequence (P98170 whole entry): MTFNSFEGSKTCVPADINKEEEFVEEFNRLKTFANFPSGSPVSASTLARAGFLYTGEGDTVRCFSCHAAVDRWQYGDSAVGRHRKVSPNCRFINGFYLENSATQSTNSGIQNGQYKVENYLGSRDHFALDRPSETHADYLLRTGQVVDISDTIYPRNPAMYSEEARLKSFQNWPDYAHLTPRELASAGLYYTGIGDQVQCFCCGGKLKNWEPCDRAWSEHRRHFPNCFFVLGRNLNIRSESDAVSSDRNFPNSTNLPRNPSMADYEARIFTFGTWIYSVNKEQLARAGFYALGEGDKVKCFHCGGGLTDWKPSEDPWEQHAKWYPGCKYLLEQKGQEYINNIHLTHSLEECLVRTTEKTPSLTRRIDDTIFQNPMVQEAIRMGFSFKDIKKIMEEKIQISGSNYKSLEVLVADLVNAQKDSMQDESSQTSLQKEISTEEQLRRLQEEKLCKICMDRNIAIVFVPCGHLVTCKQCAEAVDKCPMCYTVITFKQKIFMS
# [7] = target: T5, E3 ubiquitin-protein ligase XIAP; test: Counter Screen using XIAP-Bir3 for Chemical Antagonists of Bir1/2 domains of IAP-family anti-apoptotic proteins. [Related pubchem assays (depositor defined):AID1018, AID1449, AID1514, AID1638, AID1749, AID1750, AID488957, AID488963]
# [8] = Luminescence Cell-Based Dose Retest to Confirm Inhibitors of Cancer Stem Cells. [Related pubchem assays (depositor defined):AID2717, AID2721]; assay type: functional; conditions: Homo sapiens
# Mucolipin-3 = target: T6, Mucolipin-3 (Homo sapiens, UniProt Q8TDD5); test: Dose response cell-based high-throughput screening assay for agonists of the transient receptor potential channel ML3 (TRPML3). [Related pubchem assays: 1526, 1424, 1448 ]; assay type: functional
# T6 sequence (Q8TDD5 whole entry): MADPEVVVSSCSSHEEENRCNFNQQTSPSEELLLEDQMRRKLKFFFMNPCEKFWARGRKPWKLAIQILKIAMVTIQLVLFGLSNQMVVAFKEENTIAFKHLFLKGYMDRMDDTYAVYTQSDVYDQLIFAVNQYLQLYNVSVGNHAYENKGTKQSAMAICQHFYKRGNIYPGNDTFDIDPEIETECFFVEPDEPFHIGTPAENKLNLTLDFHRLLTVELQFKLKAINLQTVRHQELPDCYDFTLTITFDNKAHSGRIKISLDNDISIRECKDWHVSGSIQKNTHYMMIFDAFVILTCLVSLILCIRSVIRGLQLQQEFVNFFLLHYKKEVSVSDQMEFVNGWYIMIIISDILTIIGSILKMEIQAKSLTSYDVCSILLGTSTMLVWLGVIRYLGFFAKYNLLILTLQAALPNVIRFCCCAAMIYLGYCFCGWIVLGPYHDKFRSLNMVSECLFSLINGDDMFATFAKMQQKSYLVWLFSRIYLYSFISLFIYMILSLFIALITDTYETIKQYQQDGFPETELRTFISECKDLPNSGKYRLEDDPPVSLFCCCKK
# Ion channel NompC = Ion channel NompC (Danio rerio, UniProt Q7T1G6); test: Fluorescence counterscreen assay for TRPML3 agonists: dose response cell-based high-throughput screening assay to identify agonists of the transient receptor potential channel N1 (TRPN1). [Related pubchem assays: 1526, 1424, 1448 ]; assay type: functional
# Sequence of Ion channel NompC (Q7T1G6 whole entry): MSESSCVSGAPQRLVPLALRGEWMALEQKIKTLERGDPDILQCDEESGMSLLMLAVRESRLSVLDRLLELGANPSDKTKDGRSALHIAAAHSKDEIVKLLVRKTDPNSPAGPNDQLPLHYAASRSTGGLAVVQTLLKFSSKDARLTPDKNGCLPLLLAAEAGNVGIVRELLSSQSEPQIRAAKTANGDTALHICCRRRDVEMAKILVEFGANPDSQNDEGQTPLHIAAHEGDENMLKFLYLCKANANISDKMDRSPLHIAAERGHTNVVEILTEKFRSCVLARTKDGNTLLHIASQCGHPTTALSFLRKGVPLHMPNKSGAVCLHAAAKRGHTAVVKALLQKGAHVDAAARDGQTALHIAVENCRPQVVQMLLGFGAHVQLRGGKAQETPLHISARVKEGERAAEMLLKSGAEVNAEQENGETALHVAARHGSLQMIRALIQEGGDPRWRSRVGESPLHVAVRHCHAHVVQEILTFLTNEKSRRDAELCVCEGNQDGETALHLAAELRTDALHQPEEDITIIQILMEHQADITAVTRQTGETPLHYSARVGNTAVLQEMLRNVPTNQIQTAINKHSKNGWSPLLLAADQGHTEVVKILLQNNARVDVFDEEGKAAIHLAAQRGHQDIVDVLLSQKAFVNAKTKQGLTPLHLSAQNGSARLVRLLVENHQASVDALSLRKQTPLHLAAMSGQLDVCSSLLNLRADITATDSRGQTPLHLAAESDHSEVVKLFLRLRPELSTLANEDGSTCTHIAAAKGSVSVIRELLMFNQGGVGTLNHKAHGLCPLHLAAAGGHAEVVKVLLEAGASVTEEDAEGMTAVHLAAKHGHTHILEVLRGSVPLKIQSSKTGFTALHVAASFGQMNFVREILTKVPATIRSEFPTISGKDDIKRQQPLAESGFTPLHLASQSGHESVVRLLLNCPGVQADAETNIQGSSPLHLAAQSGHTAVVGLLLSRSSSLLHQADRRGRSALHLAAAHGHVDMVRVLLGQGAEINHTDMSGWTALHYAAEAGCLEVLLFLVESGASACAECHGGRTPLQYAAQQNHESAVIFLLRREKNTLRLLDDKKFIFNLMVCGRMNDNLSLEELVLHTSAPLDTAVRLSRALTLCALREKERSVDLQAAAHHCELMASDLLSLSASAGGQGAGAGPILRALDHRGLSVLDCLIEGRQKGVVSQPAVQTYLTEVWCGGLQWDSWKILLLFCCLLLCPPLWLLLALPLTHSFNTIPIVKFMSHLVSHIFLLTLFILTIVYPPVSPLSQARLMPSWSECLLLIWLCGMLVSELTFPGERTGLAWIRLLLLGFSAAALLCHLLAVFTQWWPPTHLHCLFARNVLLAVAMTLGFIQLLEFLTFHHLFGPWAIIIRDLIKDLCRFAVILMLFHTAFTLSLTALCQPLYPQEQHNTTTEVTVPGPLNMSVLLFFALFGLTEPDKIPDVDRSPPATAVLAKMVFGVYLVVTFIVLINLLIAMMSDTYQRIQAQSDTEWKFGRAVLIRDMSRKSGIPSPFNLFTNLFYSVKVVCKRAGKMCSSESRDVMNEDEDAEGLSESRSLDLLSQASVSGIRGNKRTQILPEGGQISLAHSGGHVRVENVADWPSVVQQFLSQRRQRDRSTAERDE
# [9] = target: Alkaline phosphatase, placental type (Homo sapiens, UniProt P05187); test: PLAP enzyme inhibitors, confirmation, biochemical, luminescence (AID 1512); assay type: functional
# Sequence of Alkaline phosphatase, placental type (P05187 whole entry): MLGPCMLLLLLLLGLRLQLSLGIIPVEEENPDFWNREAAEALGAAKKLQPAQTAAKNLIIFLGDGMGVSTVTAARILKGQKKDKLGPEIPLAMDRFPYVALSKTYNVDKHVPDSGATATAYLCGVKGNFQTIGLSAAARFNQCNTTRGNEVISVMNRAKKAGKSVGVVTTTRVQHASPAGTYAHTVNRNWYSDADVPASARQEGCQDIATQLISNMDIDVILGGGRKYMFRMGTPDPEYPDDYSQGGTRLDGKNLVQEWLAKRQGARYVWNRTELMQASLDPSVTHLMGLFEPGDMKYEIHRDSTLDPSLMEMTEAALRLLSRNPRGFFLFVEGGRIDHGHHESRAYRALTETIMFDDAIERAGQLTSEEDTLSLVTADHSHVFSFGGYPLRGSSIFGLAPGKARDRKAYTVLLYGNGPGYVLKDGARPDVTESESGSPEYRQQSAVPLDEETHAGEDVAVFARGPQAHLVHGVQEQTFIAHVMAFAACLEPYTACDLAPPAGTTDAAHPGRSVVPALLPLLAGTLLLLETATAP
# [10] = target: T7, Alkaline phosphatase, tissue-nonspecific isozyme (Homo sapiens, UniProt P05186); test: human TNAP enzyme inhibitors, SAR follow-up, biochemical, luminescent, dose response (AID 1056)
# T7 sequence (P05186 whole entry): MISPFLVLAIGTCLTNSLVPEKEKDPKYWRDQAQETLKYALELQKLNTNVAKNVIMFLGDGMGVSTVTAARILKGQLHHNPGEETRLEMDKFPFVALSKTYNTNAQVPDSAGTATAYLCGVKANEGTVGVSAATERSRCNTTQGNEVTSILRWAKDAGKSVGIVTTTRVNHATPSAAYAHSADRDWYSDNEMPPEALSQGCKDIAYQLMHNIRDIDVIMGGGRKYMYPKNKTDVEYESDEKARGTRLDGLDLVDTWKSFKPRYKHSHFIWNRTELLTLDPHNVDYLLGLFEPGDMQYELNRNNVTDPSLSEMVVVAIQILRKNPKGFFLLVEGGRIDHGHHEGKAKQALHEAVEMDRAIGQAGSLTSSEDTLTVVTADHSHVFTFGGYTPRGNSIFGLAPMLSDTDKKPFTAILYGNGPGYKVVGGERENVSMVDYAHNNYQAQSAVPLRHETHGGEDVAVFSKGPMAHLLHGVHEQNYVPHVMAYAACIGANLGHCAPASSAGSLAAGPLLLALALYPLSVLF
# 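For CC50 in this document: cells exposed to compound for 72 hours before luminescence readout.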
smiles,measurement,setting,value
O=c1oc2ccccc2c(Nc2ccccc2)c1CN1CCCCC1,EC50,[1],3.35 µM (active)
COc1cc(NCCCCCCCN)c2ncccc2c1,IC50,[2],46.9 µM (inactive)
same,EC50,Protein RecA,0.401 µM (active)
same,AC50,[3],2.12 µM (active)
same,CC50,[4],> 40 µM (active)
Cc1oc(-c2ccc(Cl)cc2)nc1CN1CCC(C(=O)NCc2cccs2)CC1,EC50,[5],4.32 µM (active)
same,EC50,[1],1.5 µM (active)
Cc1cccc(NC(=O)/C(C#N)=C/c2cn(CC(=O)NCc3ccco3)c3ccccc23)c1C,IC50,SUMO-activating enzyme,36.2 µM (active)
same,Absolute IC50 (XBP1),X-box-binding protein 1,< 10 µM
CN(CC(=O)O)c1ccc(C(F)(F)F)cc1[N+](=O)[O-],IC50,[6],> 100 µM (not active)
same,IC50,[7],> 100 µM (inactive)
COc1ccccc1CNC(=O)COC(=O)Cc1ccsc1,IC50,[6],> 100 µM (not active)
same,IC50,[7],> 100 µM (inactive)
O=C1C2C3C=CC(C3)C2C(=O)N1c1ccc(N2CCN(c3ccccn3)CC2)c([N+](=O)[O-])c1 (configuration not stated),AC50,[8],0.619 µM (active)
same,EC50,Mucolipin-3,> 29.9 µM (not active)
same,EC50,Ion channel NompC,> 29.9 µM (not active)
Cc1cc(NC(=O)c2cc([N+](=O)[O-])cc([N+](=O)[O-])c2)n(-c2ccccc2)n1,IC50,[6],> 100 µM (not active)
same,IC50,[7],> 100 µM (inactive)
COC(=O)c1cnc(N2CCCN(S(=O)(=O)c3ccccc3)CC2)nc1C(F)(F)F,EC50,Mucolipin-3,> 29.9 µM (not active)
same,EC50,Ion channel NompC,> 29.9 µM (not active)
CN(C)CCCN(C(=O)c1ccc(S(=O)(=O)N2CCCC2)cc1)c1nc2c(F)cc(F)cc2s1,EC50,[1],3.76 µM (active)
C=CCn1c(SCC(=O)c2ccc(O)c(O)c2)nnc1-c1ccc(OC)cc1,IC50,[9],13.6 µM (active)
same,IC50,[10],> 100 µM (inactive)
Cc1ccc(-c2nnc(SCC(=O)c3ccc(O)c(O)c3)n2Cc2ccco2)cc1,IC50,[9],5.32 µM (active)
same,IC50,[10],19.2 µM (active)
Cc1cc(C(=O)NCc2ccc(O)c(O)c2)oc1C,IC50,[9],52.7 µM (active)
same,IC50,[10],> 100 µM (inactive)
